Target: T1, GFP-Rab34 (LAP-Rab34) (Homo sapiens, UniProt Q9BZG1)
T1 sequence (Q9BZG1 1-259): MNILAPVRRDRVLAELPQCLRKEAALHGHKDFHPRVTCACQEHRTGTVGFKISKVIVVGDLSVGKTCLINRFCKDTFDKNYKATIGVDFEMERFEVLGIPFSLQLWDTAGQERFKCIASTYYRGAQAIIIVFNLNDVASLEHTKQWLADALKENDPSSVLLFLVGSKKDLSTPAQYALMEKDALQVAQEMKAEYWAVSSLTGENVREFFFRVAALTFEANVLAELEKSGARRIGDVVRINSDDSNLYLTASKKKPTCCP
Format: cell-based
Details: labelled compound; HEK293T cells; 10 mM MgCl2 in lysis buffer

## Nc1nc2c(ncn2[C@@H]2O[C@H](COP(=O)(O)OP(=O)(O)O)[C@@H](O)[C@H]2O)c(=O)[nH]1 [GDP]
  32P metabolic labelling in cells, anti-GFP immunoprecipitation, TLC of bound nuc: wildtype Rab34 was mostly GDP-bound

From publication PMC8282722 (Current biology : CB, 2021)
